Measured values reported in US8216822B2, “Bacterial host cell for the direct expression of peptides” (Unigene Laboratories, Inc., priority 2004, dated 2012).

B1: α2-macroglobulin: protease inhibitor (protein, UniProt P01023 24-1474, looked up)
Alpha-2-macroglobulin: SVSGKPQYMVLVPSLLHTETTEKGCVLLSYLNETVTVSASLESVRGNRSLFTDLEAENDVLHCVAFAVPKSSSNEEVMFLTVQVKGPTQEFKKRTTVMVKNEDSLVFVQTDKSIYKPGQTVKFRVVSMDENFHPLNELIPLVYIQDPKGNRIAQWQSFQLEGGLKQFSFPLSSEPFQGSYKVVVQKKSGGRTEHPFTVEEFVLPKFEVQVTVPKIITILEEEMNVSVCGLYTYGKPVPGHVTVSICRKYSDASDCHGEDSQAFCEKFSGQLNSHGCFYQQVKTKVFQLKRKEYEMKLHTEAQIQEEGTVVELTGRQSSEITRTITKLSFVKVDSHFRQGIPFFGQVRLVDGKGVPIPNKVIFIRGNEANYYSNATTDEHGLVQFSINTTNVMGTSLTVRVNYKDRSPCYGYQWVSEEHEEAHHTAYLVFSPSKSFVHLEPMSHELPCGHTQTVQAHYILNGGTLLGLKKLSFYYLIMAKGGIVRTGTHGLLVKQEDMKGHFSISIPVKSDIAPVARLLIYAVLPTGDVIGDSAKYDVENCLANKVDLSFSPSQSLPASHAHLRVTAAPQSVCALRAVDQSVLLMKPDAELSASSVYNLLPEKDLTGFPGPLNDQDNEDCINRHNVYINGITYTPVSSTNEKDMYSFLEDMGLKAFTNSKIRKPKMCPQLQQYEMHGPEGLRVGFYESDVMGRGHARLVHVEEPHTETVRKYFPETWIWDLVVVNSAGVAEVGVTVPDTITEWKAGAFCLSEDAGLGISSTASLRAFQPFFVELTMPYSVIRGEAFTLKATVLNYLPKCIRVSVQLEASPAFLAVPVEKEQAPHCICANGRQTVSWAVTPKSLGNVNFTVSAEALESQELCGTEVPSVPEHGRKDTVIKPLLVEPEGLEKETTFNSLLCPSGGEVSEELSLKLPPNVVEESARASVSVLGDILGSAMQNTQNLLQMPYGCGEQNMVLFAPNIYVLDYLNETQQLTPEIKSKAIGYLNTGYQRQLNYKHYDGSYSTFGERYGRNQGNTWLTAFVLKTFAQARAYIFIDEAHITQALIWLSQRQKDNGCFRSSGSLLNNAIKGGVEDEVTLSAYITIALLEIPLTVTHPVVRNALFCLESAWKTAQEGDHGSHVYTKALLAYAFALAGNQDKRKEVLKSLNEEAVKKDNSVHWERPQKPKAPVGHFYEPQAPSAEVEMTSYVLLAYLTAQPAPTSEDLTSATNIVKWITKQQNAQGGFSSTQDTVVALHALSKYGAATFTRTGKAAQVTIQSSGTFSSKFQVDNNNRLLLQQVSLPELPGEYSMKVTGEGCVYLQTSLKYNILPEKEEFPFALGVQTLPQTCDEPKAHTSFQISLSVSYTGSRSASNMAIVDVKMVSGFIPLKPTVKMLERSNHVSRTEVSSNHVLIYLDKVSNQTLSLFFTVLQDVPVRDLKPAIVKVYDYYETDEFAIAEYNAPCSKDLGNA

Columns and labels:
[1] = system: proteolytic degradation of sCTgly in conditioned fermentation medium; test: Protease inhibitors tested for ability to reduce proteolytic degradation of sCTgly in conditioned medium; format: biochemical, E. coli; conditions: 30° C.
Procedure: Conditioned medium samples from both UGL165 (E. coli BLR transformed with pSCT 029) and UGL703 (E. coli BLR transformed with pSCT 038) Direct Expression fermentations were tested for loss of sCTgly following removal of cells and incubation of the medium spiked with sCTgly at 30° C. The concentration of sCTgly in conditioned fermentation medium was measured by CEX HPLC.

[2] = molecular target: T1, E. coli Protease III (zinc metalloprotease) in fermentation medium (Escherichia coli, UniProt P05458); test: Divalent cation specificity of sCTgly degradation in fermentation medium (EDTA, MgCl2, ZnCl2); format: biochemical; conditions: 15 mM added to EDTA (50 mM) pre-treated medium, 30° C., 4 hrs
T1 construct: E. coli Protease III is a periplasmic/extracellular zinc metalloprotease; endogenous in cells; host or cells: E. coli BLR (UGL703 / UGL165), cell-free conditioned fermentation medium
T1 sequence (P05458 24-962): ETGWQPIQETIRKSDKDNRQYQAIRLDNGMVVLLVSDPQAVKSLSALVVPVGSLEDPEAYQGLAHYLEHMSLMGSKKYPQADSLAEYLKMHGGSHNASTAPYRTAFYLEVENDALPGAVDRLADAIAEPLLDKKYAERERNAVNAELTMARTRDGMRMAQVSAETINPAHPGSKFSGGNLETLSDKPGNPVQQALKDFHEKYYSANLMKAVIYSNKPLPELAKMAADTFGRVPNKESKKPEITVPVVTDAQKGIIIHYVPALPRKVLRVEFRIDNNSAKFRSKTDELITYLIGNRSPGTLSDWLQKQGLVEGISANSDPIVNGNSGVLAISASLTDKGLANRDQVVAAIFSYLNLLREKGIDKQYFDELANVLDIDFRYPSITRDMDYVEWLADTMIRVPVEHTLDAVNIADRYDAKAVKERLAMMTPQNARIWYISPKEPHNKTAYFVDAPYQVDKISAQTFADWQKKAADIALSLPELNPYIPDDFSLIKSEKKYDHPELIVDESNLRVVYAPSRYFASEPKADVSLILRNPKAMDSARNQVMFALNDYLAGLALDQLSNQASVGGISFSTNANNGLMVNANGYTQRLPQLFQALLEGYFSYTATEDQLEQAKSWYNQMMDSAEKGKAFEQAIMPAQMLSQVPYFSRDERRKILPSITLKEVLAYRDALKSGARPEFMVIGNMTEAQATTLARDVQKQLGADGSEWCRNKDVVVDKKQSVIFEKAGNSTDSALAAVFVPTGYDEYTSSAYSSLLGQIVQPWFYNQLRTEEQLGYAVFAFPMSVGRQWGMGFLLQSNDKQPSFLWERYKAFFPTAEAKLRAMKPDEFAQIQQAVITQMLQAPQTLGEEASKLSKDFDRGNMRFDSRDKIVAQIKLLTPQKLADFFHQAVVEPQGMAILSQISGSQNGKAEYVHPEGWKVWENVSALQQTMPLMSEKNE

| Molecule | ability to reduce or eliminate proteolytic degradation of sCTgly [1] | reactivation of proteolytic activity by divalent cation [2] |
| --- | --- | --- |
| CC(C)C[C@H](NC(=O)[C@@H](O)[C@H](N)Cc1ccccc1)C(=O)O [Bestatin] | Only EDTA was able to reduce the proteolytic degradation of sCTgly |  |
| [Cl-].[Cl-].[Mg+2] [MgCl2] |  | magnesium was not |
| [Cl-].[Cl-].[Zn+2] [ZnCl2] |  | zinc was effective |
| B1 | Only EDTA was able to reduce the proteolytic degradation of sCTgly |  |
